According to PubChem BioAssay (NCI):
Values joined by “and” are separate entries in the source; they are usually repeats but may differ in a detail not shown here. Equal values may be shown once.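 Values below derive from 48-hour exposures of cells grown in 96-well plates, with endpoints linearly interpolated between the two concentrations bracketing the appropriate inhibition level. GI50 marks 50% less growth. TGI denotes the concentration required for complete inhibition of growth.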

Experiments:
Test in all cases: DTP human tumour cell line panel, 48 h; in the data active = GI50 below about 0.43 µM; inactive = the rest
OVCAR-8 ovarian = tested on: OVCAR-8 ovarian
MOLT-4 leukemia = tested on: MOLT-4 leukemia
OVCAR-3 ovarian = tested on: OVCAR-3 ovarian
SK-OV-3 ovarian = tested on: SK-OV-3 ovarian
T-47D breast = tested on: T-47D breast
PC-3 prostate = tested on: PC-3 prostate
MDA-MB-435 = tested on: MDA-MB-435
RXF 393 renal = tested on: RXF 393 renal
BT-549 breast = tested on: BT-549 breast
CCRF-CEM leukemia = tested on: CCRF-CEM leukemia

Clc1ccc(N/N=C(\c2ccccc2)c2ccccn2)nc1
inactive: GI50 (BT-549 breast) 0.474 µM
11.2 µM and > 28.6 µM: TGI (OVCAR-3 ovarian)
7.38 µM and 28.5 µM: TGI (RXF 393 renal)
> 55.9 µM: TGI (MDA-MB-435)
> 100 µM: TGI (SK-OV-3 ovarian) | TGI (T-47D breast)
> 67.8 µM and 28.9 µM: TGI (PC-3 prostate)
25 µM and 29.5 µM: TGI (BT-549 breast)
active: GI50 (OVCAR-8 ovarian) 0.276 µM | GI50 (MOLT-4 leukemia) 0.0367 µM | GI50 (OVCAR-3 ovarian) 0.0379 µM | GI50 (T-47D breast) < 0.0163 µM | GI50 (PC-3 prostate) 0.112 µM | GI50 (MDA-MB-435) 0.42 µM | GI50 (RXF 393 renal) 0.275 µM | GI50 (CCRF-CEM leukemia) 0.0454 µM

O=C1Nc2ccc(CN3CCOC3=O)cc2/C1=C/c1cc(CN2CCOCC2)c[nH]1
> 72.3 µM: TGI (RXF 393 renal)
78.7 µM: TGI (MOLT-4 leukemia)
> 88.3 µM: TGI (T-47D breast)
inactive: GI50 (OVCAR-8 ovarian) 33.7 µM | GI50 (MOLT-4 leukemia) 28.5 µM | GI50 (OVCAR-3 ovarian) 47.6 µM | GI50 (SK-OV-3 ovarian) 98.9 µM | GI50 (T-47D breast) 24.9 µM | GI50 (PC-3 prostate) 36.9 µM | GI50 (MDA-MB-435) 18.7 µM | GI50 (RXF 393 renal) 18.3 µM | GI50 (BT-549 breast) 23.5 µM | GI50 (CCRF-CEM leukemia) 35.4 µM
> 79.5 µM: TGI (BT-549 breast)
> 100 µM: TGI (OVCAR-8 ovarian) | TGI (OVCAR-3 ovarian) | TGI (SK-OV-3 ovarian) | TGI (PC-3 prostate) | TGI (MDA-MB-435) | TGI (CCRF-CEM leukemia)

O=C(c1ccccc1)c1ccc(O)c2ncccc12
15.3 µM: TGI (T-47D breast)
19.6 µM: TGI (RXF 393 renal)
inactive: GI50 (OVCAR-8 ovarian) 4.08 µM | GI50 (MOLT-4 leukemia) 3.16 µM | GI50 (OVCAR-3 ovarian) 2.1 µM | GI50 (SK-OV-3 ovarian) 6.02 µM | GI50 (T-47D breast) 3.14 µM | GI50 (PC-3 prostate) 4.36 µM | GI50 (MDA-MB-435) 6.13 µM | GI50 (RXF 393 renal) 3.18 µM | GI50 (BT-549 breast) 5.96 µM | GI50 (CCRF-CEM leukemia) 3.64 µM
19.1 µM: TGI (SK-OV-3 ovarian)
> 100 µM: TGI (MOLT-4 leukemia) | TGI (CCRF-CEM leukemia)
97.5 µM: TGI (MDA-MB-435)
68.5 µM: TGI (BT-549 breast)
97.6 µM: TGI (PC-3 prostate)
41 µM: TGI (OVCAR-8 ovarian)
6.99 µM: TGI (OVCAR-3 ovarian)

N#CSCC1CC(O)(c2ccccc2)CC(c2ccc(Cl)cc2)O1 (stereo unspecified)
27.5 µM: TGI (SK-OV-3 ovarian)
inactive: GI50 (OVCAR-8 ovarian) 1.98 µM | GI50 (MOLT-4 leukemia) 1.29 µM | GI50 (OVCAR-3 ovarian) 1.72 µM | GI50 (SK-OV-3 ovarian) 14.3 µM | GI50 (T-47D breast) 1.7 µM | GI50 (PC-3 prostate) 2.47 µM | GI50 (MDA-MB-435) 1.9 µM | GI50 (RXF 393 renal) 1.94 µM | GI50 (BT-549 breast) 2.35 µM | GI50 (CCRF-CEM leukemia) 2.55 µM
7.49 µM: TGI (PC-3 prostate)
4.83 µM: TGI (BT-549 breast)
3.14 µM: TGI (OVCAR-3 ovarian)
3.94 µM: TGI (OVCAR-8 ovarian)
6.27 µM: TGI (T-47D breast)
4.8 µM: TGI (MDA-MB-435)
5 µM: TGI (MOLT-4 leukemia)
3.72 µM: TGI (RXF 393 renal)
11.2 µM: TGI (CCRF-CEM leukemia)

CN(N=O)C(=O)Nc1ccc(C(=O)O)cc1
> 100 µM: TGI (OVCAR-8 ovarian) | TGI (MOLT-4 leukemia) | TGI (OVCAR-3 ovarian) | TGI (SK-OV-3 ovarian) | TGI (T-47D breast) | TGI (PC-3 prostate) | TGI (MDA-MB-435) | TGI (RXF 393 renal) | TGI (BT-549 breast) | TGI (CCRF-CEM leukemia)

COc1ccc2c(c1)C(=O)c1c-2n(CCCN=[N+]=[N-])c(=O)c2cc(N)ccc12
> 100 µM: TGI (OVCAR-8 ovarian) | TGI (MOLT-4 leukemia) | TGI (OVCAR-3 ovarian) | TGI (SK-OV-3 ovarian) | TGI (T-47D breast) | TGI (PC-3 prostate) | TGI (MDA-MB-435) | TGI (RXF 393 renal) | TGI (BT-549 breast) | TGI (CCRF-CEM leukemia)
inactive: GI50 (OVCAR-8 ovarian) > 100 µM | GI50 (MOLT-4 leukemia) > 100 µM | GI50 (OVCAR-3 ovarian) > 100 µM | GI50 (SK-OV-3 ovarian) > 100 µM | GI50 (T-47D breast) > 100 µM | GI50 (PC-3 prostate) > 100 µM | GI50 (MDA-MB-435) > 100 µM | GI50 (RXF 393 renal) 57.6 µM | GI50 (BT-549 breast) > 100 µM | GI50 (CCRF-CEM leukemia) > 100 µM

O=C(O)c1cc2cc(O)ccc2[nH]1
inactive: GI50 (OVCAR-8 ovarian) > 100 µM | GI50 (MOLT-4 leukemia) > 100 µM | GI50 (OVCAR-3 ovarian) > 100 µM | GI50 (SK-OV-3 ovarian) > 100 µM | GI50 (T-47D breast) > 100 µM | GI50 (PC-3 prostate) > 100 µM | GI50 (MDA-MB-435) > 100 µM | GI50 (RXF 393 renal) > 100 µM | GI50 (BT-549 breast) > 100 µM | GI50 (CCRF-CEM leukemia) > 100 µM
> 100 µM: TGI (OVCAR-8 ovarian) | TGI (MOLT-4 leukemia) | TGI (OVCAR-3 ovarian) | TGI (SK-OV-3 ovarian) | TGI (T-47D breast) | TGI (PC-3 prostate) | TGI (MDA-MB-435) | TGI (RXF 393 renal) | TGI (BT-549 breast) | TGI (CCRF-CEM leukemia)
